From PubChem BioAssay (NCI)
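Interpolation was linear, between the two tested concentrations surrounding the appropriate level; five concentrations were tested over 48 hours in 96-well plates. TGI denotes the concentration required for complete inhibition of growth.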

Columns and labels:
Experiment in all cases: NCI tumour cell line growth inhibition, 48 h
[1] = system: HL-60(TB) leukemia
[2] = system: A549 NSCLC
[3] = system: KM12 colon
[4] = system: RPMI-8226 leukemia
[5] = system: ACHN renal
[6] = system: RXF 393 renal
[7] = system: SW-620 colon
[8] = system: LXFL 529 NSCLC
[9] = system: IGROV1 ovarian
[10] = system: KM20L2 colon
[11] = system: XF 498 CNS
[12] = system: EKVX NSCLC
[13] = system: UO-31 renal
[14] = system: HCT-116 colon
[15] = system: OVCAR-4 ovarian
[16] = system: OVCAR-5 ovarian
[17] = system: MOLT-4 leukemia
[18] = system: HOP-18 NSCLC
[19] = system: HCT-15 colon
[20] = system: COLO 205 colon
[21] = system: K-562 leukemia
[22] = system: HOP-92 NSCLC
[23] = system: HOP-62 NSCLC
[24] = system: SNB-19 CNS
[25] = system: RXF-631 renal
[26] = system: A498 renal
[27] = system: HCC-2998 colon
[28] = system: 786-0 renal
[29] = system: NCI-H226 lung
[30] = system: SNB-78 CNS
[31] = system: OVCAR-3 ovarian
[32] = system: OVCAR-8 ovarian
[33] = system: HT29 colon
[34] = system: SF-295 CNS
[35] = system: SNB-75 CNS
[36] = system: CAKI-1 renal
[37] = system: UACC-62 melanoma
[38] = system: M14 melanoma
[39] = system: SK-MEL-2 melanoma
[40] = system: UACC-257 melanoma
[41] = system: NCI-H460 lung
[42] = system: MALME-3M melanoma
[43] = system: SN12C renal
[44] = system: TK-10 renal
[45] = system: NCI-H23 lung
[46] = system: CCRF-CEM leukemia
[47] = system: M19-MEL melanoma
[48] = system: DLD-1 colon
[49] = system: LOX IMVI melanoma
[50] = system: SK-OV-3 ovarian
[51] = system: U251 CNS
[52] = system: SK-MEL-5 melanoma
[53] = system: SF-539 CNS
[54] = system: DMS 114 small cell lung
[55] = system: DMS 273 small cell lung
[56] = system: SK-MEL-28 melanoma
[57] = system: SF-268 CNS
[58] = system: SR leukemia
[59] = system: NCI-H522 lung
[60] = system: NCI/ADR-RES ovarian
[61] = system: P388 leukemia
[62] = system: P388/ADR leukemia
[63] = system: SN12K1 renal
[64] = system: MCF7 breast

Molecule `CCc1c(OC(C)=O)c2c(NC3OCC(OC(C)=O)C(OC(C)=O)C3OC(C)=O)nc(SC)nc2oc1=O` (stereo not given) has a TGI [1] of over 100 µM, a TGI [2] of over 100 µM and a TGI [3] of over 100 µM. It also gave a TGI [4] of over 100 µM, a TGI [5] of over 100 µM and a TGI [6] of over 100 µM. It also gave a TGI [7] of over 100 µM, a TGI [8] of over 100 µM and a TGI [9] of over 100 µM. The TGI [10] was over 100 µM, the TGI [11] was over 100 µM and the TGI [12] was over 100 µM. For the same molecule, the TGI [13] was over 100 µM, the TGI [14] was over 100 µM and the TGI [15] was over 100 µM. The TGI [16] was over 100 µM, the TGI [17] was over 100 µM and the TGI [18] was over 100 µM. It also gave a TGI [19] of over 100 µM, a TGI [20] of over 100 µM and a TGI [21] of over 100 µM. The TGI [22] was over 100 µM, the TGI [23] was over 100 µM and the TGI [24] was over 100 µM. It also gave a TGI [25] of over 100 µM, a TGI [26] of over 100 µM and a TGI [27] of over 100 µM. The TGI [28] was over 100 µM, the TGI [29] was over 100 µM and the TGI [30] was over 100 µM. It also gave a TGI [31] of over 100 µM, a TGI [32] of over 100 µM and a TGI [33] of over 100 µM. The TGI [34] was over 100 µM, the TGI [35] was over 100 µM and the TGI [36] was over 100 µM. It also gave a TGI [37] of over 100 µM, a TGI [38] of over 100 µM and a TGI [39] of over 100 µM. For the same molecule, the TGI [40] was over 100 µM, the TGI [41] was over 100 µM and the TGI [42] was over 100 µM. It also gave a TGI [43] of over 100 µM, a TGI [44] of over 100 µM and a TGI [45] of over 100 µM. It also gave a TGI [46] of over 100 µM, a TGI [47] of over 100 µM and a TGI [48] of over 100 µM. The TGI [49] was over 100 µM, the TGI [50] was over 100 µM and the TGI [51] was over 100 µM. For the same molecule, the TGI [52] was over 100 µM and the TGI [53] was over 100 µM.
Molecule `CC(C)(C)c1cc2ccc(C(N)=O)cc2c(=O)[nH]1` has a TGI [54] of over 100 µM, a TGI [1] of over 100 µM and a TGI [2] of over 100 µM. It also gave a TGI [3] of over 100 µM, a TGI [5] of over 100 µM and a TGI [55] of over 100 µM. The TGI [6] was over 100 µM, the TGI [7] was over 100 µM and the TGI [56] was over 100 µM. The TGI [8] was over 100 µM, the TGI [9] was over 100 µM and the TGI [10] was over 100 µM. The TGI [12] was over 100 µM, the TGI [13] was over 100 µM and the TGI [14] was over 100 µM. The TGI [15] was over 100 µM, the TGI [16] was over 100 µM and the TGI [17] was over 100 µM. It also gave a TGI [18] of over 100 µM, a TGI [19] of over 100 µM and a TGI [20] of over 100 µM. It also gave a TGI [21] of over 100 µM, a TGI [22] of over 100 µM and a TGI [57] of over 100 µM. The TGI [23] was over 100 µM, the TGI [24] was over 100 µM and the TGI [25] was over 100 µM. It also gave a TGI [26] of over 100 µM, a TGI [27] of over 100 µM and a TGI [28] of over 100 µM. The TGI [29] was over 100 µM, the TGI [30] was over 100 µM and the TGI [31] was over 100 µM. For the same molecule, the TGI [32] was over 100 µM, the TGI [33] was over 100 µM and the TGI [34] was over 100 µM. It also gave a TGI [35] of over 100 µM, a TGI [36] of over 100 µM and a TGI [37] of over 100 µM. For the same molecule, the TGI [38] was over 100 µM, the TGI [39] was over 100 µM and the TGI [58] was over 100 µM. For the same molecule, the TGI [40] was over 100 µM, the TGI [41] was over 100 µM and the TGI [42] was over 100 µM. For the same molecule, the TGI [43] was over 100 µM, the TGI [44] was over 100 µM and the TGI [45] was over 100 µM. The TGI [46] was over 100 µM, the TGI [47] was over 100 µM and the TGI [48] was over 100 µM. The TGI [59] was over 100 µM, the TGI [49] was over 100 µM and the TGI [50] was over 100 µM. It also gave a TGI [51] of over 100 µM, a TGI [52] of over 100 µM and a TGI [53] of over 100 µM.
`CCCCCCCC/C=C\CCCCCCCCCCCC(=O)O` showed a TGI [1] of 34.6 µM, a TGI [2] of over 125 µM and a TGI [3] of 70.8 µM. The TGI [4] was 110 µM, the TGI [60] was over 125 µM and the TGI [55] was 48.7 µM. For the same molecule, the TGI [6] was 18.4 µM, the TGI [7] was 90.1 µM and the TGI [56] was 108 µM. It also gave a TGI [9] of over 125 µM, a TGI [10] of 122 µM and a TGI [11] of 2.82 µM. For the same molecule, the TGI [12] was 92.8 µM, the TGI [13] was over 125 µM and the TGI [14] was 60.9 µM. It also gave a TGI [15] of over 115 µM, a TGI [16] of over 125 µM and a TGI [17] of 95.2 µM. It also gave a TGI [18] of over 125 µM, a TGI [19] of 122 µM and a TGI [20] of 40.4 µM. It also gave a TGI [21] of 47.4 µM, a TGI [22] of 101 µM and a TGI [57] of over 125 µM. The TGI [23] was 63.6 µM, the TGI [24] was over 64.5 µM and the TGI [27] was over 85.8 µM. For the same molecule, the TGI [29] was 107 µM, the TGI [30] was over 115 µM and the TGI [31] was 36.5 µM. It also gave a TGI [32] of over 109 µM, a TGI [33] of over 125 µM and a TGI [34] of 116 µM. The TGI [35] was 113 µM, the TGI [36] was over 117 µM and the TGI [37] was 102 µM. For the same molecule, the TGI [39] was 31.1 µM, the TGI [40] was over 125 µM and the TGI [41] was 34.9 µM. It also gave a TGI [42] of over 125 µM, a TGI [43] of over 98 µM and a TGI [45] of 80.8 µM. For the same molecule, the TGI [61] was 51.6 µM, the TGI [46] was 57.5 µM and the TGI [47] was 97.2 µM. It also gave a TGI [62] of 36.3 µM, a TGI [48] of over 125 µM and a TGI [59] of 40 µM. It also gave a TGI [49] of 70.8 µM, a TGI [50] of over 125 µM and a TGI [63] of 52.4 µM. For the same molecule, the TGI [64] was 33.8 µM, the TGI [51] was 110 µM and the TGI [52] was 57.5 µM. The TGI [53] was 40.4 µM.
